According to EP1518554A1, “Pharmaceutical composition for the treatment of hyperhomocysteinemia” (Medosan Industrie Biochimiche Riunite S.r.l., priority 2003, dated 2005):

Tested on: homocysteine ematic level
Test: Randomised clinical study in patients with hyperhomocysteinemia; plasma homocysteine determined by immunoenzymatic test (EIA) at enrolment and after 30 days of treatment
Format: in vivo
Text: Assessments about the pharmacological effectiveness of the composition according to the present invention have been carried out according to the following study protocol.
The experimentation has examined a total number of 60 patients assigned to one of the two treatment groups (30 patients to group A and 30 patients to group B).
• Patients of both sexes • Age older than 18 • Homocysteinemia level >15 µmol/l
• Patients suffering from diseases interfering with the homocysteine dosage • Patients in therapy with drugs interfering with the homocysteine metabolism (isoniazid, antiepileptic, methotrexate) • Subjects with ascertained individual hypersensitivity towards the active principles and/of the excipients of the product • Women during pregnancy or puerperium • Patients suffering from diabetes mellitus […]
The obtained data have been assessed statistically withe Student's t test and the significance is expressed as follows: P<0.05*; P<0.01**; P<0.001***

With arginine glutamate the “reduction in the homocysteine plasmatic levels” value (general statement of the applicant's experimental data, dose and duration not stated at the place) was 10-15% and the “reduction in the homocysteine plasmatic values” (patients with homocysteinemia >15 µmol/l, 10-ml small bottle which can be drunk, twice a day for 30 days, 30 patients per group, Student's t test (composition 9 p≤0.001; arginine glutamate only p≤0.01)) was 12%.
